Reference: PubChem BioAssay (NCI)
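Five concentrations, 48 hours, 96-well plates. GI50 = concentration required for 50% inhibition of growth. Definition used: TGI = concentration required for complete inhibition of growth.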

What was measured:
Experiment in all cases: NCI tumour cell line growth inhibition, 48 h
OVCAR-8 ovarian = system: OVCAR-8 ovarian
MDA-MB-231 breast = system: MDA-MB-231 breast
UO-31 renal = system: UO-31 renal
HCT-15 colon = system: HCT-15 colon
T-47D breast = system: T-47D breast
HCC-2998 colon = system: HCC-2998 colon
SK-MEL-5 melanoma = system: SK-MEL-5 melanoma
NCI-H522 lung = system: NCI-H522 lung
HT29 colon = system: HT29 colon
UACC-257 melanoma = system: UACC-257 melanoma
HL-60(TB) leukemia = system: HL-60(TB) leukemia
UACC-62 melanoma = system: UACC-62 melanoma
RXF 393 renal = system: RXF 393 renal
SN12C renal = system: SN12C renal
786-0 renal = system: 786-0 renal
OVCAR-3 ovarian = system: OVCAR-3 ovarian
ACHN renal = system: ACHN renal
CAKI-1 renal = system: CAKI-1 renal
KM12 colon = system: KM12 colon
SK-OV-3 ovarian = system: SK-OV-3 ovarian
PC-3 prostate = system: PC-3 prostate
SK-MEL-2 melanoma = system: SK-MEL-2 melanoma
OVCAR-5 ovarian = system: OVCAR-5 ovarian
SF-295 CNS = system: SF-295 CNS
A549 NSCLC = system: A549 NSCLC
DU-145 prostate = system: DU-145 prostate
EKVX NSCLC = system: EKVX NSCLC
SF-268 CNS = system: SF-268 CNS
RPMI-8226 leukemia = system: RPMI-8226 leukemia
MDA-MB-435 = system: MDA-MB-435
SR leukemia = system: SR leukemia
SNB-19 CNS = system: SNB-19 CNS
CCRF-CEM leukemia = system: CCRF-CEM leukemia
K-562 leukemia = system: K-562 leukemia
NCI-H226 lung = system: NCI-H226 lung
MCF7 breast = system: MCF7 breast
SW-620 colon = system: SW-620 colon
A498 renal = system: A498 renal
OVCAR-4 ovarian = system: OVCAR-4 ovarian
HOP-92 NSCLC = system: HOP-92 NSCLC
HS 578T breast = system: HS 578T breast
HOP-62 NSCLC = system: HOP-62 NSCLC
LOX IMVI melanoma = system: LOX IMVI melanoma
M14 melanoma = system: M14 melanoma
NCI-H23 lung = system: NCI-H23 lung
MALME-3M melanoma = system: MALME-3M melanoma
IGROV1 ovarian = system: IGROV1 ovarian
MOLT-4 leukemia = system: MOLT-4 leukemia
SF-539 CNS = system: SF-539 CNS
NCI/ADR-RES ovarian = system: NCI/ADR-RES ovarian
HCT-116 colon = system: HCT-116 colon
BT-549 breast = system: BT-549 breast
SNB-75 CNS = system: SNB-75 CNS
U251 CNS = system: U251 CNS
SK-MEL-28 melanoma = system: SK-MEL-28 melanoma
TK-10 renal = system: TK-10 renal
NCI-H460 lung = system: NCI-H460 lung
COLO 205 colon = system: COLO 205 colon

**Q.** For `O=[N+]([O-])c1ccc2c(c1)C(=NO)c1cc([N+](=O)[O-])ccc1-2`, which GI50 (OVCAR-8 ovarian) is on record?
**A.** 74.7 µM

**Q.** And the TGI (OVCAR-8 ovarian)?
**A.** > 100 µM

**Q.** What about the GI50 (MDA-MB-231 breast) of the same compound?
**A.** 36.3 µM

**Q.** And the TGI (MDA-MB-231 breast)?
**A.** > 100 µM

**Q.** What about the GI50 (UO-31 renal) of the same compound?
**A.** 3.12 µM

**Q.** And the TGI (UO-31 renal)?
**A.** 23.5 µM

**Q.** And the GI50 (HCT-15 colon)?
**A.** 8.92 µM

**Q.** And the TGI (HCT-15 colon)?
**A.** > 100 µM

**Q.** And the GI50 (T-47D breast)?
**A.** 79 µM

**Q.** What about the TGI (T-47D breast) of the same compound?
**A.** > 100 µM

**Q.** What about the GI50 (HCC-2998 colon) of the same compound?
**A.** 37.1 µM

**Q.** And the TGI (HCC-2998 colon)?
**A.** > 100 µM

**Q.** What about the GI50 (SK-MEL-5 melanoma) of the same compound?
**A.** 12.1 µM

**Q.** What about the TGI (SK-MEL-5 melanoma) of the same compound?
**A.** 34 µM

**Q.** And the GI50 (NCI-H522 lung)?
**A.** 1.62 µM

**Q.** What about the TGI (NCI-H522 lung) of the same compound?
**A.** 11 µM

**Q.** And the GI50 (HT29 colon)?
**A.** 19.5 µM

**Q.** What about the TGI (HT29 colon) of the same compound?
**A.** > 100 µM

**Q.** And the GI50 (UACC-257 melanoma)?
**A.** 62.6 µM

**Q.** What about the TGI (UACC-257 melanoma) of the same compound?
**A.** > 100 µM

**Q.** What about the GI50 (HL-60(TB) leukemia) of the same compound?
**A.** 4.19 µM

**Q.** What about the TGI (HL-60(TB) leukemia) of the same compound?
**A.** 22.9 µM

**Q.** What about the GI50 (UACC-62 melanoma) of the same compound?
**A.** 11.5 µM

**Q.** And the TGI (UACC-62 melanoma)?
**A.** > 100 µM

**Q.** And the GI50 (RXF 393 renal)?
**A.** > 100 µM

**Q.** And the TGI (RXF 393 renal)?
**A.** > 100 µM

**Q.** And the GI50 (SN12C renal)?
**A.** 20.5 µM

**Q.** What about the TGI (SN12C renal) of the same compound?
**A.** > 100 µM

**Q.** What about the GI50 (786-0 renal) of the same compound?
**A.** 10.8 µM

**Q.** What about the TGI (786-0 renal) of the same compound?
**A.** > 100 µM

**Q.** What about the GI50 (OVCAR-3 ovarian) of the same compound?
**A.** 68.4 µM

**Q.** And the TGI (OVCAR-3 ovarian)?
**A.** > 100 µM

**Q.** And the GI50 (ACHN renal)?
**A.** 4.98 µM

**Q.** And the TGI (ACHN renal)?
**A.** 39.7 µM

**Q.** And the GI50 (CAKI-1 renal)?
**A.** 6.46 µM

**Q.** And the TGI (CAKI-1 renal)?
**A.** > 100 µM

**Q.** And the GI50 (KM12 colon)?
**A.** 18.6 µM

**Q.** What about the TGI (KM12 colon) of the same compound?
**A.** > 100 µM

**Q.** And the GI50 (SK-OV-3 ovarian)?
**A.** > 100 µM

**Q.** And the TGI (SK-OV-3 ovarian)?
**A.** > 100 µM

**Q.** What about the GI50 (PC-3 prostate) of the same compound?
**A.** 24.2 µM

**Q.** And the TGI (PC-3 prostate)?
**A.** > 100 µM

**Q.** And the GI50 (SK-MEL-2 melanoma)?
**A.** > 100 µM

**Q.** And the TGI (SK-MEL-2 melanoma)?
**A.** > 100 µM

**Q.** And the GI50 (OVCAR-5 ovarian)?
**A.** > 100 µM

**Q.** And the TGI (OVCAR-5 ovarian)?
**A.** > 100 µM

**Q.** What about the GI50 (SF-295 CNS) of the same compound?
**A.** 13.5 µM

**Q.** What about the TGI (SF-295 CNS) of the same compound?
**A.** > 100 µM

**Q.** And the GI50 (A549 NSCLC)?
**A.** 7.23 µM

**Q.** And the TGI (A549 NSCLC)?
**A.** > 100 µM

**Q.** And the GI50 (DU-145 prostate)?
**A.** 55.1 µM

**Q.** What about the TGI (DU-145 prostate) of the same compound?
**A.** > 100 µM

**Q.** And the GI50 (EKVX NSCLC)?
**A.** 12.9 µM

**Q.** And the TGI (EKVX NSCLC)?
**A.** > 100 µM

**Q.** And the GI50 (SF-268 CNS)?
**A.** 33.6 µM

**Q.** And the TGI (SF-268 CNS)?
**A.** > 100 µM

**Q.** What about the GI50 (RPMI-8226 leukemia) of the same compound?
**A.** 29.4 µM

**Q.** And the TGI (RPMI-8226 leukemia)?
**A.** > 100 µM

**Q.** And the GI50 (MDA-MB-435)?
**A.** 22.5 µM

**Q.** What about the TGI (MDA-MB-435) of the same compound?
**A.** > 100 µM

**Q.** What about the GI50 (SR leukemia) of the same compound?
**A.** 2.88 µM

**Q.** And the TGI (SR leukemia)?
**A.** 9.86 µM

**Q.** And the GI50 (SNB-19 CNS)?
**A.** > 100 µM

**Q.** What about the TGI (SNB-19 CNS) of the same compound?
**A.** > 100 µM

**Q.** What about the GI50 (CCRF-CEM leukemia) of the same compound?
**A.** 13.6 µM

**Q.** What about the TGI (CCRF-CEM leukemia) of the same compound?
**A.** > 100 µM

**Q.** What about the GI50 (K-562 leukemia) of the same compound?
**A.** 11.7 µM

**Q.** And the TGI (K-562 leukemia)?
**A.** > 100 µM

**Q.** And the GI50 (NCI-H226 lung)?
**A.** 10.9 µM

**Q.** What about the TGI (NCI-H226 lung) of the same compound?
**A.** 29.1 µM

**Q.** And the GI50 (MCF7 breast)?
**A.** 4.92 µM

**Q.** What about the TGI (MCF7 breast) of the same compound?
**A.** > 100 µM

**Q.** And the GI50 (SW-620 colon)?
**A.** 12.4 µM

**Q.** And the TGI (SW-620 colon)?
**A.** > 100 µM

**Q.** And the GI50 (A498 renal)?
**A.** 54 µM

**Q.** And the TGI (A498 renal)?
**A.** > 100 µM

**Q.** What about the GI50 (OVCAR-4 ovarian) of the same compound?
**A.** 12.7 µM

**Q.** And the TGI (OVCAR-4 ovarian)?
**A.** > 100 µM

**Q.** And the GI50 (HOP-92 NSCLC)?
**A.** 53.7 µM

**Q.** What about the TGI (HOP-92 NSCLC) of the same compound?
**A.** > 100 µM

**Q.** What about the GI50 (HS 578T breast) of the same compound?
**A.** > 100 µM

**Q.** What about the TGI (HS 578T breast) of the same compound?
**A.** > 100 µM

**Q.** What about the GI50 (HOP-62 NSCLC) of the same compound?
**A.** 46.5 µM

**Q.** What about the TGI (HOP-62 NSCLC) of the same compound?
**A.** > 100 µM

**Q.** And the GI50 (LOX IMVI melanoma)?
**A.** 13.8 µM

**Q.** And the TGI (LOX IMVI melanoma)?
**A.** > 100 µM

**Q.** And the GI50 (M14 melanoma)?
**A.** 21.5 µM

**Q.** And the TGI (M14 melanoma)?
**A.** > 100 µM

**Q.** And the GI50 (NCI-H23 lung)?
**A.** 25.3 µM

**Q.** And the TGI (NCI-H23 lung)?
**A.** > 100 µM

**Q.** And the GI50 (MALME-3M melanoma)?
**A.** 11.7 µM

**Q.** What about the TGI (MALME-3M melanoma) of the same compound?
**A.** > 100 µM

**Q.** And the GI50 (IGROV1 ovarian)?
**A.** 2.52 µM

**Q.** What about the TGI (IGROV1 ovarian) of the same compound?
**A.** 7.6 µM

**Q.** What about the GI50 (MOLT-4 leukemia) of the same compound?
**A.** 3.25 µM

**Q.** And the TGI (MOLT-4 leukemia)?
**A.** 7.61 µM

**Q.** And the GI50 (SF-539 CNS)?
**A.** 37.7 µM

**Q.** What about the TGI (SF-539 CNS) of the same compound?
**A.** > 100 µM

**Q.** And the GI50 (NCI/ADR-RES ovarian)?
**A.** 16.3 µM

**Q.** What about the TGI (NCI/ADR-RES ovarian) of the same compound?
**A.** > 100 µM

**Q.** What about the GI50 (HCT-116 colon) of the same compound?
**A.** 6.71 µM

**Q.** What about the TGI (HCT-116 colon) of the same compound?
**A.** > 100 µM

**Q.** And the GI50 (BT-549 breast)?
**A.** 50.8 µM

**Q.** And the TGI (BT-549 breast)?
**A.** > 100 µM

**Q.** And the GI50 (SNB-75 CNS)?
**A.** 7.18 µM

**Q.** What about the TGI (SNB-75 CNS) of the same compound?
**A.** 75.8 µM

**Q.** What about the GI50 (U251 CNS) of the same compound?
**A.** 10.7 µM

**Q.** What about the TGI (U251 CNS) of the same compound?
**A.** > 100 µM

**Q.** What about the GI50 (SK-MEL-28 melanoma) of the same compound?
**A.** 43.4 µM

**Q.** What about the TGI (SK-MEL-28 melanoma) of the same compound?
**A.** > 100 µM

**Q.** And the GI50 (TK-10 renal)?
**A.** 12.6 µM

**Q.** And the TGI (TK-10 renal)?
**A.** > 100 µM

**Q.** What about the GI50 (NCI-H460 lung) of the same compound?
**A.** 4.82 µM

**Q.** And the TGI (NCI-H460 lung)?
**A.** > 100 µM

**Q.** What about the GI50 (COLO 205 colon) of the same compound?
**A.** 39.5 µM

**Q.** And the TGI (COLO 205 colon)?
**A.** > 100 µM
